Results published in patent US20090069328A1, “ALPHA-ALKYL SUBSTITUTED N-ACYLTRYPTOPHANOLS” (priority 2007, published 2009).

These compounds were tested against T1, human FSH receptor (Homo sapiens, UniProt P23945) (assay: HTRF assay for measuring cAMP in cells (FSH antagonism)). Conditions: hFSHR clone 16 cells (CHO cells stably transfected with the human FSH receptor); in the presence of 1e-9 mol/l hFSH; cAMP readout; read-out: IC50 (FSH antagonistic effect in the HTRF assay).
T1 construct: expressed in transfected cells; host or cells: CHO cells (hFSHR clone 16)
T1 sequence (P23945 18-695): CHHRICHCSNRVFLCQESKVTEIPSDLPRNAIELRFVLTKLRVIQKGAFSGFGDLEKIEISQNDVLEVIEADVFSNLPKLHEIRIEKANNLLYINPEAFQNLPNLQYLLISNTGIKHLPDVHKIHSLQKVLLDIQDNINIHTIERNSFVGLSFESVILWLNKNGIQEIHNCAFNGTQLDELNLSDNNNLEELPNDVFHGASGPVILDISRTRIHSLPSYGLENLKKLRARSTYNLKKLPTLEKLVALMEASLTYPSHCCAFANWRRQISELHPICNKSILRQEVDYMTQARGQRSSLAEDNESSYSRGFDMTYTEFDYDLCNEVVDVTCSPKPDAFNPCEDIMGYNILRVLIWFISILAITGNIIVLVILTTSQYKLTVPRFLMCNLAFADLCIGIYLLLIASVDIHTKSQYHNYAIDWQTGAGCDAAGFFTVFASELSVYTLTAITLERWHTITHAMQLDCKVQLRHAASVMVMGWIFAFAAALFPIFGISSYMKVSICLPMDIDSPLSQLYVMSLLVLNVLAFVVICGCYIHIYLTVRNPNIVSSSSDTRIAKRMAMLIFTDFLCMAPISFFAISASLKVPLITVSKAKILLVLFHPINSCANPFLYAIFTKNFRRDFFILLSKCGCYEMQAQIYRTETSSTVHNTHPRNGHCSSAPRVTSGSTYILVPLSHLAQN
Type: cell-based
Experimental: HTRF Assay for Measuring cAMP in Cells
The method is based on a competitive immunoassay between native cAMP, which has been produced by the cells, and cAMP which is labelled with cAMPD2 conjugate. The tracer binding was visualized by a monoclonal antibody, anti-cAMP labelled with cryptate [HTRF=homogeneous time-resolved fluorescence].
The specific signal is inversely proportional to the cAMP concentration of the samples employed.
The 665 nm/620 nm fluorescence ratio was evaluated.
The following material was used: 96-well plates for the tissue culture, 96-well plates with black edge and black base (e.g. Fluotrac 600 from Greiner), 96-well plates for the substance dilutions of polypropylene and cAMP Femtomolar (4000wells Kit, CIS Bio International #62AM5PEJ).
The following reagents were used: BSA (bovine serum albumin) Fraction V protease-free, IBMX (3-isobutyl-1-methylxanthine), hFSH (human follicle stimulating hormone), Triton X-100 analytical grade, potassium fluoride analytical grade, G 418 (Geneticin) and Accutase.
Buffer 1 (washing and testing buffer) contained PBS, 1 mM CaCl2, 1 mM MgCl2, 0.2% glucose; 0.1% BSA, 1 mM IBMX.
Buffer 2 (2× lysis buffer) contained 1% Triton X-100 in PBS (without CaCl2 and MgCl2).
Buffer 3 (assay buffer) contained 50 mM potassium phosphate buffer (pH 7.0); 800 mM potassium fluoride; 0.2% BSA (always added fresh).
On day 1, the cells were seeded in 96-well plates (3×10^4 cells per well hFSHR clone 16 cells (CHO cells stably transfected with the human FSH receptor in 150 μl of medium). The next day, test substance dilutions were made up. For this purpose, all the substances were diluted in ice-cold buffer 1 (with or without hFSH), and the substance dilutions were placed on ice until applied to the cells.
The cell supernatant was then aspirated off, and the cells were washed 2× with 200 μl of buffer 1. The cells were treated with 60 μl of the appropriate substance concentrations at 37° C. for 2 h. The cells were then lysed with 60 μl of buffer 2 (put onto the supernatant) (on a plate shaker at RT for 30 min).
The test conjugates (cAMP-D2 and anti-cAMP cryptate, CIS Bio) were diluted in buffer 3 in accordance with the manufacturers' information. The actual mixture for measurement was pipetted into a black 96-well plate (in each case 15 μl of the cell lysate diluted with 35 μl of buffer 1; firstly 25 μl of cAMP-D2 conjugate were pipetted and, after 10 min, 25 μl of the anti-cAMP cryptate were added). This is followed by incubation at RT for 90 minutes. The measurement was carried out in a PheraStar (BMG).
Dose-effect curve (hFSH) for the human receptor: 1e-8, 3e-9, 1e-9, 3e-10, 1e-10, 3e-11, 1e-11, 3e-12 mol/l.
The test substances were employed in suitable dilutions in the absence (test for agonism) and in the presence of 1e-9 mol/l hFSH.
The values of the well ratio were averaged and then entered directly in SigmaPlot versus the concentrations. The maximum and minimum values were determined for each plate, and half the difference is to be regarded as IC50.

| Compound | IC50 |
| --- | --- |
| CC(C)Oc1ccc(C#Cc2ccccc2)cc1C(=O)NC(C)(CO)Cc1c[nH]c2ccccc12 (centres unmarked) [Example 1, N-[1-Hydroxymethyl-2-(1H-indol-3-yl)-1-methyl-ethyl]-2-isopropoxy-5-phenylethynyl-benzamide] | 1000 nM |
| CNC(=O)c1cc(F)cc(-c2ccc(OC(C)C)c(C(=O)NC(C)(CO)Cc3c[nH]c4ccccc34)c2)c1 (centres unmarked) [Example 2, 5′-Fluoro-4-isopropoxy-biphenyl-3,3′-dicarboxylic acid 3-{[2-hydroxy-1-(1H-indol-3-ylmethyl)-1-methyl-ethyl]-amide} 3′-methylamide] | 1000 nM |

The next lines start with the values.

| IC50 | Compound |
| --- | --- |
| 50 nM | COc1ccc(-c2ccc(OC(C)C)c(C(=O)NC(C)(CO)Cc3c[nH]c4ccccc34)c2)cc1OC (racemic) [Example 4, 4-Isopropoxy-3′,4′-dimethoxy-biphenyl-3-carboxylic acid [1-hydroxymethyl-2-(1H-indol-3-yl)-1-methyl-ethyl]-amide] |
| 100 nM | CNC(=O)c1ccc(-c2ccc(OC(C)C)c(C(=O)NC(C)(CO)Cc3c[nH]c4ccccc34)c2)cc1Cl (centres unmarked) [Example 3, 3′-Chloro-4-isopropoxy-biphenyl-3,4′-dicarboxylic acid 3-{[2-hydroxy-1-(1H-indol-3-ylmethyl)-1-methyl-ethyl]-amide}-4′-methylamide] |
| 200 nM | COc1ccccc1C#Cc1ccc(OC(C)C)c(C(=O)NC(C)(CO)Cc2c[nH]c3ccccc23)c1 (centres unmarked) [Example 5, N-[1-Hydroxymethyl-2-(1H-indol-3-yl)-1-methyl-ethyl]-2-isopropoxy-5-(2-methoxy-phenylethynyl)-benzamide] |
